Measured values published in PubChem BioAssay AID179 (DTP/NCI, 2004).
Activity calls are given as the source filed them.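 How the source made its calls: active means compounds giving half or more protection of infected cells from virus-caused growth loss, again on retest; inactive means the rest.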

System: CEM cells HIV-1 protection, formazan growth assay
Test: NCI AIDS Antiviral Assay
Conditions: for IC50: measured here: growth of uninfected CEM cells
Summary of the method: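 CEM (human) cells, HIV-1 infected vs uninfected, 5-point dosing, formazan growth read-out. Retest threshold 50% protection.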

`CC(=O)OC12c3ccccc3-c3ccccc3C1C(C(=O)O)C2(Cl)C(=O)O` (stereo not drawn) was tested, and the EC50 was > 646 µM and the IC50 was 355 µM.
In the case of `CCOC(=O)NNC(=O)C1CSC(c2ccccc2)N1C(C)=O` (stereo not drawn), the EC50 is reported as > 200 µM and the IC50 is reported as > 200 µM.
With `Nc1nc(Cl)nc2c1ncn2C1CC(O)C(CO)O1` (stereo not drawn) the EC50 was > 631 µM and the IC50 was 3.09 µM.
For `COCCOCOC(CCCCO)c1cc(C)c(O[Si](C)(C)C(C)(C)C)c(C)c1` (stereo not drawn), the EC50 was > 50.1 µM and the IC50 was 4.9 µM.
With `Clc1cccc(Sc2ccccc2)c1` the EC50 was > 23.4 µM and the IC50 was > 23.4 µM.
`O=S1(=O)O[C@H]2CCCC[C@@H]2O1` was tested, and the EC50 was > 45.7 µM and the IC50 was > 45.7 µM.
With `COc1ccc(/C(C)=N/NC(=S)N(C)C)c(O)c1` the EC50 was > 200 µM and the IC50 was 4.79 µM.
`Cc1c(O)c(C)c2c(C)cn(C(=O)C(C)(C)C)c2c1C` was tested, and the EC50 was > 200 µM and the IC50 was 30.2 µM.
For `C=C(C)C1Cc2c(cc(OC)c3c(=O)c4ccccc4n(C)c23)O1` (stereo not drawn), the EC50 was > 22.4 µM and the IC50 was > 22.4 µM.
`CCOC(=O)C1=C(Nc2ccc(Cl)cc2Cl)OC/C1=N\NS(=O)(=O)c1ccc(C)cc1` was tested, and the EC50 was > 28.2 µM and the IC50 was > 28.2 µM.
In the case of `O=C1CNCCCN2CCN(CCCNCC(=O)Nc3ccc(cc3)S(=O)(=O)c3ccc(cc3)NC(=O)CNCCCN3CCN(CCCNCC(=O)Nc4ccc(cc4)S(=O)(=O)c4ccc(cc4)N1)CC3)CC2`, the EC50 is reported as > 50.1 µM and the IC50 is reported as > 50.1 µM.
`C1CSC(=[N+]2CC[N+](=C3SCCS3)CC2)S1` was tested, and the outcome was “inactive”.
In the case of `Cc1c(/C=N/N=C/c2[nH]c(C(=O)OC(C)(C)C)c(C)c2C)[nH]c(C(=O)OC(C)(C)C)c1C`, the outcome is reported as “inactive”.
`O=c1[nH]nc(-c2ccccc2)n1/N=C/c1ccccc1Cl` was tested, and the EC50 was > 200 µM and the IC50 was 74.1 µM.
For `O[C@H]1C=CC[C@H]2C(F)(F)[C@](F)(Cl)[C@@]12Cl`, the EC50 was > 1000 µM and the IC50 was 186 µM.
`COc1ccc(N2C(=O)/C(=C/c3ccc(N(CCC#N)CCC#N)cc3)N=C2c2ccccc2)cc1` was tested, and the EC50 was > 200 µM and the IC50 was > 200 µM.
For `NC(N)=NC(N)=Nc1cccc(S(=O)(=O)c2cccc(N=C(N)N=C(N)N)c2)c1`, the EC50 was 126 µM and the IC50 was > 200 µM.
`CCOC(=O)/C(=C\c1cccc([N+](=O)[O-])c1)[Se]c1ccccc1` was tested, and the EC50 was > 26.3 µM and the IC50 was 10.7 µM.
`Cn1c(=O)[nH]c(N2CCCC2)c(C#N)c1=S` was tested, and the EC50 was > 200 µM and the IC50 was > 200 µM.
`CCc1cccc(C)c1NC(C)=O` was tested, and the outcome was “inactive”.
With `c1ccc2sc(SCN3CCN(CSc4nc5ccccc5s4)CC3)nc2c1` the EC50 was > 1.62 µM and the IC50 was > 1.62 µM.
In the case of `CS(=O)(=O)Nc1c(-c2ccccc2)oc2ccccc2c1=O`, the EC50 is reported as > 200 µM and the IC50 is reported as > 200 µM.
In the case of `CCc1cccc(C(C)C)c1NC(=O)C(=O)C1C(=O)Nc2ccccc2S1=O` (stereo not drawn), the EC50 is reported as > 91.2 µM and the IC50 is reported as > 91.2 µM.
For `O=C(Nc1ccccc1)N1CCN(C(=O)Nc2ccccc2)C1=S`, the EC50 was 195 µM and the IC50 was > 200 µM.
In the case of `CC(=O)Nc1cc(S(=O)(=O)O)cc2cc(S(=O)(=O)O)c(N=Nc3ccc(C(=O)Nc4ccc5cc(S(=O)(=O)O)ccc5c4)cc3)c(O)c12`, the outcome is reported as “inactive”.
For `COC(=O)C1(C(=O)OC)C2=Nc3ccccc3[C@@]23CCN(Cc2ccccc2)C3C[C@H]1c1ccoc1` (stereo partly drawn), the EC50 was > 36.3 µM and the IC50 was 21.4 µM.
In the case of `O=P1(c2ccccc2)c2ccccc2CCc2ccccc21`, the EC50 is reported as > 200 µM and the IC50 is reported as 95.5 µM.
For `CC(C)NC(=O)OCc1nnn2c1C(OC(=O)NC(C)C)CC2` (stereo not drawn), the outcome was “inactive”.
With `COc1ccc(OC)c2c1C(=O)C1CC1(Br)C2=O` (stereo not drawn) the outcome was “inactive”.
In the case of `O=C(CCCN1CCC(Nc2ccccc2)(c2nnnn2C2CCCCC2)CC1)c1ccc(F)cc1`, the EC50 is reported as > 200 µM and the IC50 is reported as 75.9 µM.
In the case of `CN1C=C/C(=C/[N+](=O)[O-])N(C)C1=O`, the EC50 is reported as > 200 µM and the IC50 is reported as > 200 µM.
In the case of `Nc1ccc(Nc2cc(=O)[nH]c(=O)[nH]2)cc1Cl`, the EC50 is reported as > 200 µM and the IC50 is reported as > 200 µM.
With `COC(=O)C(Cc1ccccc1)C(=O)C(CC(=O)OC(C)(C)C)NC(=O)OC(C)(C)C` (stereo not drawn) the EC50 was > 200 µM and the IC50 was > 200 µM.
With `COc1cc2[nH]c3c(c2cc1OC)CCN[C@@]31CC[C@@]2(CC3c4c(cc(OC)c(O)c42)CCN3C)C[C@@H]1OC` (stereo partly drawn) the outcome was “inactive”.
With `COC(=O)N(C[C@@H]1C=CCCC1)c1ccccc1I` the EC50 was > 14.1 µM and the IC50 was > 14.1 µM.
